Test results from US9682990B2, “Alcohol-, diol-, and carbohydrate-substituted indenoisoquinolines as topoisomerase I inhibitors” (Purdue Research Foundation, priority 2011, dated 2017).
Where two headings read alike, the source gives them in different places. Marks after values point to notes of the source that are not given here.

Key:
[1] = test system: OVCAR-3 (Ovarian); experiment: NCI Developmental Therapeutics antiproliferative assay, OVCAR-3; format: cell-based, human
Procedure: (§1) Biological Results. The indenoisoquinoline analogues were tested for antiproliferative activity in the National Cancer Institute's Developmental Therapeutics Assay against cell lines derived from approximately 60 different human tumors. […] Results are reported in Table 2 as GI50 values for selected cell lines, and overall antiproliferative potency is quantified as a mean-graph midpoint (MGM).

[2] = test system: UACC-62 (Melanoma); experiment: NCI Developmental Therapeutics antiproliferative assay, UACC-62; format: cell-based, human
Procedure: (§2) Biological Results. The indenoisoquinoline analogues were tested for antiproliferative activity in the National Cancer Institute's Developmental Therapeutics Assay against cell lines derived from approximately 60 different human tumors.

[3] = test system: all human cancer cell lines successfully tested; experiment: NCI-60 cell line assay, mean-graph midpoint; format: cell-based; settings: for MGM (mean graph midpoint for growth inhibition): all human cancer cell lines tested, 10^−8 to 10^−4 molar; for GI50: read-out: MGM GI50
Procedure: as §2, with “tumors. […] The cytotoxicities of the compounds to cultured cancer cells were measured in the National Cancer Institute's 60 cell line assay (a.k.a. NCI-60).” for “tumors.”

[4] = test system: SF-539 (CNS); experiment: NCI Developmental Therapeutics antiproliferative assay, SF-539; format: cell-based, human
Procedure: as §1

[5] = test system: HCT-116 (Colon); experiment: NCI Developmental Therapeutics antiproliferative assay, HCT-116; format: cell-based, human
Procedure: as §2

[6] = test system: SN12C (Renal); experiment: NCI Developmental Therapeutics antiproliferative assay, SN12C; format: cell-based, human
Procedure: as §1

[7] = test system: HOP-62 (Lung); experiment: NCI Developmental Therapeutics antiproliferative assay, HOP-62; format: cell-based, human
Procedure: as §2

[8] = test system: DU-145 (Prostate); experiment: NCI Developmental Therapeutics antiproliferative assay, DU-145; format: cell-based, human
Procedure: as §2

[9] = test system: cell lines derived from approximately 60 different human tumors; experiment: NCI initial one-dose screening assay; format: cell-based; settings: percentage of cell growth, one-dose assay at 10 μM
[10] = test system: MCF7 (Breast); experiment: NCI Developmental Therapeutics antiproliferative assay, MCF7; format: cell-based, human
Procedure: as §1

[11] = Homo sapiens, OVCAR-3, 50% growth inhibition, read-out: Cytotoxicity (GI50) Ovarian OVCAR-3
[12] = Homo sapiens, UACC-62, 50% growth inhibition, read-out: Cytotoxicity (GI50) Melanoma UACC-62
[13] = Homo sapiens, SF-539, 50% growth inhibition, read-out: Cytotoxicity (GI50) CNS SF-539
[14] = Homo sapiens, HCT-116, 50% growth inhibition, read-out: Cytotoxicity (GI50) Colon HCT-116
[15] = Homo sapiens, SN12C, 50% growth inhibition, read-out: Cytotoxicity (GI50) Renal SN12C
[16] = Homo sapiens, HOP-62, 50% growth inhibition, read-out: Cytotoxicity (GI50) Lung HOP-62
[17] = Homo sapiens, DU-145, 50% growth inhibition, read-out: Cytotoxicity (GI50) Prostate DU-145
[18] = Homo sapiens, MCF7, 50% growth inhibition, read-out: Cytotoxicity (GI50) Breast MCF7

For `C[C@H](O)Cn1c2c(c3ccccc3c1=O)C(=O)c1ccccc1-2` [Compound 27c, (2′RS)-5,6-Dihydro-6-(2′-hydroxypropyl)-5,11-dioxo-11H-indeno[1,2-c]isoquinoline], the GI50 [1] was 16.2 µM, the GI50 [2] was 6.16 µM and the “MGM (mean graph midpoint for growth inhibition)” value [3] was 7.9 µM. The GI50 [4] was 6.76 µM, the GI50 [5] was 5.75 µM and the GI50 [6] was 3.98 µM. The GI50 [7] was 3.46 µM, the GI50 [8] was 4.36 µM and the “Growth Percent” value [9] was 50.24%. It also gave a GI50 [10] of 3.8 µM.
In the case of “(1′R)-5,6-Dihydro-6-(3′-hydroxy-1′-methylethyl)-5,11-dioxo-11H-indeno[1,2-c]isoquinoline [Compound 22b]”, the “Growth Percent” value [9] is reported as 78.60%.
`COc1cc2c3c(n(C[C@H](O)CO)c(=O)c2cc1OC)-c1ccccc1C3=O` [Compound 29, (2′S)-5,6-Dihydro-6-(2′,3′-dihydroxypropyl)-2,3-dimethoxy-5,11-dioxo-11H-indeno[1,2-c]isoquinoline] was tested, and the GI50 [1] was 0.287 µM, the GI50 [2] was 0.144 µM and the “MGM (mean graph midpoint for growth inhibition)” value [3] was 0.401 ± 0.055 µM. For the same compound, the GI50 [3] was 0.401 µM, the GI50 [4] was 0.214 µM and the GI50 [5] was 0.23 µM. For the same compound, the GI50 [6] was 0.501 µM, the GI50 [7] was 0.336 µM and the GI50 [8] was 0.419 µM. The GI50 [10] was 0.097 µM.
With `C[C@H](O)Cn1c2c(c3ccccc3c1=O)C(=O)c1ccccc1-2` [Compound 27b, (2′S)-5,6-Dihydro-6-(2′-hydroxypropyl)-5,11-dioxo-11H-indeno[1,2-c]isoquinoline] the “Growth Percent” value [9] was 54.88%.
For `C[C@@H](O)Cn1c2c(c3ccccc3c1=O)C(=O)c1ccccc1-2` [Compound 27a, (2′R)-5,6-Dihydro-6-(2′-hydroxypropyl)-5,11-dioxo-11H-indeno[1,2-c]isoquinoline], the GI50 [1] was 21.4 µM, the GI50 [2] was 10.2 µM and the “MGM (mean graph midpoint for growth inhibition)” value [3] was 10.2 µM. It also gave a GI50 [4] of 6.31 µM, a GI50 [5] of 5.52 µM and a GI50 [6] of 9.33 µM. For the same compound, the GI50 [7] was 3.39 µM, the GI50 [8] was 8.32 µM and the “Growth Percent” value [9] was 55.23%. For the same compound, the GI50 [10] was 3.23 µM.
With `O=C1c2ccccc2-c2c1c1ccccc1c(=O)n2C[C@H](O)[C@@H](O)[C@@H](O)CO` [Compound 17g, (2′S,3′R,4′S,5′R)-5,6-Dihydro-6-(2′,3′,4′,5′-tetrahydroxypentyl)-5,11-dioxo-11H-indeno[1,2-c]isoquinoline] the “Growth Percent” value [9] was 67.99%.
For `O=C1c2ccccc2-c2c1c1ccc([N+](=O)[O-])cc1c(=O)n2C[C@H](O)[C@@H](O)[C@H](O)[C@H](O)CO` [Compound 19, (2′S,3′R,4′R,5′R)-5,6-Dihydro-6-(2′,3′,4′,5′,6′-pentahydroxyhexyl)-3-nitro-5,11-dioxo-11H-indeno[1,2-c]isoquinoline], the GI50 [1, 11] was 4.26 µM, the GI50 [2, 12] was 2.98 µM and the “MGM (mean graph midpoint for growth inhibition)” value [3] was 4.60 ± 0.53 µM. It also gave a GI50 [4, 13] of 2.61 µM, a GI50 [5, 14] of 5.08 µM and a GI50 [6, 15] of 17.7 µM. The GI50 [7, 16] was 7.35 µM, the GI50 [8, 17] was 4.76 µM and the “Growth Percent” value [9] was 58.05%. It also gave a GI50 [10, 18] of 0.88 µM.
For `NC[C@H](O)Cn1c2c(c3ccccc3c1=O)C(=O)c1ccccc1-2` [Compound 27d, (2′RS)-5,6-Dihydro-6-(3′-amino-2′-hydroxypropyl)-5,11-dioxo-11H-indeno[1,2-c]isoquinoline], the GI50 [1] was 1.32 µM, the GI50 [2] was 0.318 µM and the “MGM (mean graph midpoint for growth inhibition)” value [3] was 0.348 ± 0.109 µM. The GI50 [3] was 0.348 µM, the GI50 [4] was 0.344 µM and the GI50 [5] was 0.263 µM. For the same compound, the GI50 [6] was 0.206 µM, the GI50 [7] was 0.276 µM and the GI50 [8] was 0.13 µM. The “Growth Percent” value [9] was −23.49% and the GI50 [10] was 0.198 µM.
For `O=C1c2ccccc2-c2c1c1ccccc1c(=O)n2CC(O)CO` (racemic) [Compound 12c, (2′RS)-5,6-Dihydro-6-[(2′,3′-dihydroxypropyl)]-5,11-dioxo-11H-indeno[1,2-c]isoquinoline], the GI50 [1, 11] was 18.6 µM, the GI50 [2, 12] was 7.58 µM and the GI50 ([3]; Homo sapiens) was 5.13 µM. For the same compound, the “MGM (mean graph midpoint for growth inhibition)” value [3] was 5.13 µM, the GI50 [4, 13] was 5.89 µM and the GI50 [5, 14] was 4.36 µM. For the same compound, the GI50 [6, 15] was 2.95 µM, the GI50 [7, 16] was 7.76 µM and the GI50 [8, 17] was 2.88 µM. The GI50 [10, 18] was 3.55 µM.
In the case of `O=C1c2ccccc2-c2c1c1ccccc1c(=O)n2C[C@H](O)[C@@H](O)[C@H](O)CO` [Compound 17d, (2′S,3′R,4′R)-5,6-Dihydro-6-(2′,3′,4′,5′-tetrahydroxypentyl)-5,11-dioxo-11H-indeno[1,2-c]isoquinoline], the GI50 [1] is reported as 24 µM, the “MGM (mean graph midpoint for growth inhibition)” value [3] is reported as 4.07 µM and the GI50 [4] is reported as 7.94 µM. The GI50 [6] was 2.24 µM, the GI50 [7] was 3.23 µM and the “Growth Percent” value [9] was 34.91%. For the same compound, the GI50 [10] was 1.74 µM.
In the case of `O=C1c2ccccc2-c2c1c1ccccc1c(=O)n2C[C@H](O)[C@H](O)[C@H](O)CO` [Compound 17b, (2′S,3′S,4′R)-5,6-Dihydro-6-(2′,3′,4′,5′-tetrahydroxypentyl)-5,11-dioxo-11H-indeno[1,2-c]isoquinoline], the GI50 [1] is reported as 13.5 µM, the GI50 [2] is reported as 3.23 µM and the “MGM (mean graph midpoint for growth inhibition)” value [3] is reported as 3.31 µM. For the same compound, the GI50 [4] was 2.14 µM, the GI50 [6] was 2.4 µM and the “Growth Percent” value [9] was 17.28%. For the same compound, the GI50 [10] was 1.38 µM.
With “(1′RS)-5,6-Dihydro-6-(3′-hydroxy-2′-methylethyl)-5,11-dioxo-11H-indeno[1,2-c]isoquinoline [Compound 22c]” the GI50 [1] was 25.7 µM, the GI50 [2] was 11.7 µM and the “MGM (mean graph midpoint for growth inhibition)” value [3] was 15.6 ± 2.15 µM. For the same compound, the GI50 [4] was 14.4 µM, the GI50 [5] was 15.9 µM and the GI50 [6] was 37.1 µM. It also gave a GI50 [7] of 17.6 µM, a GI50 [8] of 23.7 µM and a GI50 [10] of 34.4 µM.
`O=C1c2ccccc2-c2c1c1ccccc1c(=O)n2C[C@H](O)[C@@H](O)[C@H](O)[C@H](O)CO` [Compound 17c, (2′S,3′R,4′R,5′R)-5,6-Dihydro-6-(2′,3′,4′,5′,6′-pentahydroxyhexyl)-5,11-dioxo-11H-indeno[1,2-c]isoquinoline] was tested, and the “Growth Percent” value [9] was 97.16^e %.
For `O=C1c2ccccc2-c2c1c1ccccc1c(=O)n2C[C@@H](O)[C@@H](O)[C@H](O)[C@H](O)CO` [Compound 17f, (2′R, 3′R, 4′R, 5′R)-5,6-Dihydro-6-(2′,3′,4′,5′,6′-pentahydroxyhexyl)-5,11-dioxo-11H-indeno[1,2-c]isoquinoline], the “Growth Percent” value [9] was 69.35%.
For `O=C1c2ccccc2-c2c1c1ccccc1c(=O)n2C[C@@H](O)[C@H](O)[C@H](O)CO` [Compound 17a, (2′R, 3′S, 4′R)-5,6-Dihydro-6-(2′,3′,4′,5′-tetrahydroxypentyl)-5,11-dioxo-11H-indeno[1,2-c]isoquinoline], the GI50 [1] was over 100 µM, the GI50 [2] was 7.41 µM and the “MGM (mean graph midpoint for growth inhibition)” value [3] was 19.9 µM. The GI50 [4] was 7.59 µM, the GI50 [6] was 20 µM and the GI50 [7] was 8.71 µM. The “Growth Percent” value [9] was 58.44% and the GI50 [10] was 4.57 µM.
For `O=C1c2ccccc2-c2c1c1ccccc1c(=O)n2C[C@@H](O)[C@@H](O)[C@H](O)CO` [Compound 17e, (2′R,3′R,4′R)-5,6-Dihydro-6-(2′,3′,4′,5′-tetrahydroxypentyl)-5,11-dioxo-11H-indeno[1,2-c]isoquinoline], the GI50 [1] was 13.2 µM, the GI50 [2] was 6.31 µM and the “MGM (mean graph midpoint for growth inhibition)” value [3] was 7.76 µM. It also gave a GI50 [4] of 11.2 µM, a GI50 [6] of 5.01 µM and a GI50 [7] of 6.46 µM. For the same compound, the “Growth Percent” value [9] was 50.62% and the GI50 [10] was 1.9 µM.
`NCCCn1c2c(c3ccc([N+](=O)[O-])cc3c1=O)C(=O)c1cc3c(cc1-2)OCO3` [reference compound] gave a GI50 ([3]; Homo sapiens, Table 3, NCI-60, unit inferred) of 0.09 ± 0.04 µM.
For `O=C1c2ccccc2-c2c1c1ccc([N+](=O)[O-])cc1c(=O)n2C[C@H](O)CO` [Compound 30, (2′S)-5,6-Dihydro-6-(2′,3′-dihydroxypropyl)-3-nitro-5,11-dioxo-11H-indeno[1,2-c]isoquinoline], the “MGM (mean graph midpoint for growth inhibition)” value [3] was 0.156 ± 0.061 µM and the GI50 [3] was 0.156 µM.
